In ChEMBL document CHEMBL1158908, “Diyne Enol Ethers of Glycerol from a New Zealand Sponge, Petrosia hebes” (1990):

Test system: P388
Experiment: Cytotoxicity against mouse P388 cells
Format: functional
Conditions: read-out: ID50 (the source's name)

SMILES	IC50
CCCCCCCCCC(O)C#CC#C/C=C\OCC(O)CO (configuration not stated)	> 11 mg/L
CC(C)CCCCCC(O)C#CC#C/C=C\OCC(O)CO (configuration not stated)	> 6 mg/L
